Laboratory results published in patent US7897645B2, “Herpesvirus-derived therapeutic agent for pain” (Taiho Pharmaceutical Co., Ltd., priority 2005, dated 2011).

What was measured:
post herpetic neuralgia [1] = test: Clinical course of zoster-associated pain in patients, in words (case reports); assay type: in vivo, human; conditions: for effect on continued pain after herpes zoster: Example 6: person, diclofenac sodium suppository 1 to 2 times per day in addition to morphine hydrochloride 30 mg/day
Method: A person. They were diagnosed as right face herpes zoster. Anti-virus agent was administered by drops for 5 days. Since dull pain remained at the same region thereafter, oral administration of mecobalamin of 1500 μg/day and sodium loxoprofen of 180 mg/day was started after the consultation. After administration for 2 weeks, VAS evaluation of pain dropped to 1 point, and the administration of sodium loxoprofen stopped with administration of mecobalamin maintained. Mecobalamin was further administered, and although VAS evaluations were 1 to 3 points for about 3 months, sense of incongruity and spasmodic sharp pain of neuralgia after herpes zoster continued, and therefore oral administration of a 100 mg capsule of IPD 3 times per day was started in the same manner as in Example 1 with administration of mecobalamin maintained. After 1 week of the administration of suplatast tosylate, the post herpetic neuralgia disappeared, and VAS evaluation became 0 point. […] Then administration was stopped.
A person. Painful rashes appeared from right chest to the back, and they were diagnosed as herpes zoster. Anti-virus agent was administered by dropping for 1 week, but the pain continued. Diclofenac sodium suppository was used by 1 to 2 times per day in addition to administration of morphine hydrochloride 30 mg/day, but both of them were no effect, and further nerve block treatment was also no effect. After 6 months of the consultation (7 points at VAS evaluation), oral administration of a 100 mg capsule of IPD 3 times per day was started in the same manner as in Example 1, the post herpetic neuralgia decreased to 5 points at VAS evaluation by the treatment for 3 weeks, although the administration of morphine was invalid.

post herpetic neuralgia [2] = test: Visual Analogue Scale (VAS) evaluation of pain in herpes zoster / post herpetic neuralgia patients (case reports); assay type: in vivo, human; conditions: for VAS evaluation of pain: mecobalamin 1500 μg/day and sodium loxoprofen 180 mg/day oral together, after 2 weeks
Method: The present invention will be described below in more detail with reference to examples and test examples. However, the invention is not limited by these examples. The sharp pain in examples was evaluated by the Visual Analogue Scale evaluation (hereinafter abbreviated to “VAS evaluation”), in which the grade of pain of each patient is expressed by himself or herself on a 100 mm straight line. In VAS evaluation, the highest score is 10 points (100 mm), and the point becomes smaller according to the decrease of the pain. (refer to Anesth Analog 1993, 77, 1041-1047 etc.)

What does the source list for `CCOCC(O)COc1ccc(NC(=O)CC[S+](C)C)cc1.Cc1ccc(S(=O)(=O)[O-])cc1` (racemic) [suplatast tosylate, (±)-[2-[4-(3-ethoxy-2-hydroxypropoxy)phenylcarbamoyl]ethyl]dimethylsulfonium p-toluenesulfonate]?
symptoms on continued administration (post herpetic neuralgia [1]; Example 3: person, oral suplatast tosylate and mecobalamin continued for further about 1 month): no symptom was observed; VAS evaluation (post herpetic neuralgia [2]; Example 1: person, PHN, 100 mg capsule of IPD 3 times per day oral, after 3 days, 5 points before): 0 point; VAS evaluation (post herpetic neuralgia [2]; Example 2: person, PHN, 100 mg capsule of IPD 3 times per day oral, after 1.5 months, 7 points before): 2 points; VAS evaluation (post herpetic neuralgia [2]; Example 3: person, PHN, 100 mg capsule of IPD 3 times per day oral, mecobalamin maintained, after 1 week, 1 to 3 points before): 0 point; VAS evaluation (post herpetic neuralgia [2]; Example 4: person, PHN, 100 mg capsule of IPD 3 times per day oral, after 1 month, 0.5 to 1 point before): 0.1 to 0.2 point; VAS evaluation (post herpetic neuralgia [2]; Example 5: person, PHN, 100 mg capsule of IPD 3 times per day oral, by continuation of the administration): 0.7 point; VAS evaluation (post herpetic neuralgia [2]; Example 5: person, PHN, 100 mg capsule of IPD 3 times per day oral, first decrease, 5 points before): 1 point; VAS evaluation (post herpetic neuralgia [2]; Example 6: person, PHN, 100 mg capsule of IPD 3 times per day oral, treatment for 3 weeks, 7 points before): 5 points

How did the “effect on continued pain after herpes zoster” value (post herpetic neuralgia [1]) turn out when `O=C(O)Cc1ccccc1Nc1c(Cl)cccc1Cl` [Diclofenac sodium] was run?
The value was “no effect”.

Which results are given for `C/C1=C2/[N-][C@H]([C@H](CC(N)=O)[C@@]2(C)CCC(=O)NC[C@@H](C)OP(=O)([O-])O[C@H]2[C@@H](O)[C@@H](n3cnc4cc(C)c(C)cc43)O[C@@H]2CO)[C@]2(C)N=C(/C(C)=C3N=C(/C=C4N=C1[C@@H](CCC(N)=O)C\4(C)C)[C@@H](CCC(N)=O)[C@]\3(C)CC(N)=O)[C@@H](CCC(N)=O)[C@]2(C)CC(N)=O.[CH3-].[Co+3]` [mecobalamin]?
VAS evaluation (post herpetic neuralgia [2]; Example 1: person, mecobalamin 1500 μg/day oral continued, neuralgia not changed for 3 years after consultation): 5 points; VAS evaluation (post herpetic neuralgia [2]; Example 2: person, mecobalamin 1500 μg/day continued, PHN did not change for 8 months after consultation): 7 points; VAS evaluation of pain (post herpetic neuralgia [2]; Example 3: person): 1 point; VAS evaluations (post herpetic neuralgia [2]; Example 3: person, mecobalamin alone further administered, for about 3 months): 1 to 3 points; VAS evaluation (post herpetic neuralgia [2]; Example 4: person, mecobalamin 1500 μg/day for 1.5 months, 5 points before): 0.5 to 1 point

With `CN1CC[C@]23c4c5ccc(O)c4O[C@H]2[C@@H](O)C=C[C@H]3[C@H]1C5.Cl` [morphine hydrochloride] as the compound, how does the “effect on continued pain after herpes zoster” value (post herpetic neuralgia [1]) read?
The value was “no effect”.

For `CC(C(=O)[O-])c1ccc(CC2CCCC2=O)cc1.[Na+]` (stereo not shown) [sodium loxoprofen], which “VAS evaluation of pain” value (post herpetic neuralgia [2]; Example 3: person) is on record?
The value was 1 point.
